Source: the NIST ThermoML archive (doi:10.1016/j.jct.2019.03.035)
± gives the expanded uncertainty stated by the source.

Test: molar heat capacity at constant pressure; xn = mol fraction of the nth substance listed
Settings: 100 kPa, Liquid, DSC, x1 = 0.53

N#Cc1ccccc1 [benzonitrile] + CCCCCCCCCC
Settings	molar heat capacity at constant pressure [J/K/mol]
281.74 K	261.8 ± 10
281.89 K	260.4 ± 10
282.04 K	262.8 ± 10
282.19 K	264 ± 10
282.34 K	264.4 ± 10
282.48 K	263.4 ± 10
282.63 K	264 ± 10
282.78 K	263.3 ± 10
282.93 K	263.9 ± 10
283.08 K	266.3 ± 10
283.23 K	265.2 ± 10
283.38 K	266.7 ± 10
283.52 K	266.3 ± 10
283.67 K	268.2 ± 10
283.82 K	266.5 ± 10
283.97 K	267.5 ± 10
284.12 K	266.6 ± 10
284.26 K	265.9 ± 10
284.41 K	266.6 ± 10
284.56 K	268 ± 10
284.71 K	266.6 ± 10
284.86 K	268.5 ± 10
285.01 K	265.8 ± 10
285.16 K	269.9 ± 10
285.3 K	270.2 ± 10
285.45 K	268.9 ± 10
285.6 K	269.8 ± 10
285.75 K	271.8 ± 10
285.9 K	271.1 ± 10
286.05 K	270.5 ± 10
286.19 K	273.2 ± 11
286.34 K	273.4 ± 11
286.49 K	278.6 ± 11
286.64 K	283.9 ± 11
286.79 K	282.2 ± 11
286.94 K	285.9 ± 11
287.09 K	285.2 ± 11
287.23 K	307.6 ± 13
287.38 K	254 ± 12
287.53 K	250.3 ± 9.7
287.68 K	248.6 ± 9.6
287.83 K	246.7 ± 9.6
287.98 K	247.4 ± 9.6
288.12 K	245.8 ± 9.5
288.27 K	246 ± 9.5
288.42 K	245.6 ± 9.5
288.57 K	244.9 ± 9.5
288.72 K	244.8 ± 9.5
288.87 K	244.5 ± 9.5
289.01 K	244.3 ± 9.5
289.16 K	243.6 ± 9.4
289.31 K	244.2 ± 9.5
289.46 K	243.9 ± 9.4
289.61 K	244.1 ± 9.5
289.76 K	243.4 ± 9.4
289.9 K	243.5 ± 9.4
290.05 K	243.5 ± 9.4
290.2 K	243.2 ± 9.4
290.35 K	243.1 ± 9.4
290.5 K	243.2 ± 9.4
290.65 K	243.1 ± 9.4
290.83 K	243 ± 9.4
290.98 K	241.8 ± 9.4
291.13 K	243 ± 9.4
291.28 K	243.4 ± 9.4
291.43 K	242.8 ± 9.4
291.57 K	242.5 ± 9.4
291.72 K	242.7 ± 9.4
291.87 K	242.8 ± 9.4
292.02 K	242.4 ± 9.4
292.17 K	242.1 ± 9.4
292.32 K	241.7 ± 9.4
292.46 K	242.5 ± 9.4
292.61 K	242.1 ± 9.4
292.76 K	241.7 ± 9.4
292.91 K	242.6 ± 9.4
293.06 K	242 ± 9.4
293.21 K	242.1 ± 9.4
293.36 K	242.4 ± 9.4
293.5 K	241.7 ± 9.4
293.65 K	242.3 ± 9.4
293.8 K	242.2 ± 9.4
293.95 K	242.1 ± 9.4
294.1 K	241.7 ± 9.4
294.25 K	241.9 ± 9.4
294.39 K	241.8 ± 9.4
294.54 K	242.1 ± 9.4
294.69 K	242.1 ± 9.4
294.84 K	242.3 ± 9.4
294.99 K	241.7 ± 9.4
295.14 K	242.2 ± 9.4
295.29 K	242.1 ± 9.4
295.43 K	241.7 ± 9.4
295.58 K	242 ± 9.4
295.73 K	242.1 ± 9.4
295.88 K	242.8 ± 9.4
296.03 K	242.1 ± 9.4
296.18 K	242.8 ± 9.4
296.32 K	242.2 ± 9.4
296.47 K	241.8 ± 9.4
296.62 K	241.1 ± 9.3
297.05 K	242.4 ± 9.4
297.34 K	242.5 ± 9.4
297.62 K	242.5 ± 9.4
297.91 K	242.4 ± 9.4
298.19 K	242.5 ± 9.4
298.47 K	242.7 ± 9.4
298.76 K	242.6 ± 9.4
299.04 K	242.7 ± 9.4
299.32 K	242.8 ± 9.4
299.61 K	242.9 ± 9.4
299.89 K	242.9 ± 9.4
300.18 K	243 ± 9.4
300.46 K	243.1 ± 9.4
300.74 K	243 ± 9.4
301.03 K	243 ± 9.4
301.31 K	243.1 ± 9.4
301.6 K	243.2 ± 9.4
301.88 K	243.2 ± 9.4
302.16 K	243.3 ± 9.4
302.45 K	243.4 ± 9.4
302.73 K	243.5 ± 9.4
303.01 K	243.5 ± 9.4
303.3 K	243.6 ± 9.4
303.58 K	243.7 ± 9.4
303.87 K	243.7 ± 9.4
304.15 K	243.8 ± 9.4
304.43 K	243.9 ± 9.4
304.72 K	243.9 ± 9.4
305 K	244.1 ± 9.5
305.29 K	244.1 ± 9.5
305.57 K	244 ± 9.5
305.85 K	244.2 ± 9.5
306.14 K	244.3 ± 9.5
306.42 K	244.3 ± 9.5
306.7 K	244.4 ± 9.5
306.99 K	244.5 ± 9.5
307.27 K	244.6 ± 9.5
307.56 K	244.6 ± 9.5
307.84 K	244.7 ± 9.5
308.12 K	244.9 ± 9.5
308.41 K	244.8 ± 9.5
308.69 K	244.9 ± 9.5
308.98 K	245.1 ± 9.5
309.26 K	245 ± 9.5
309.54 K	245.1 ± 9.5
309.83 K	245.2 ± 9.5
310.11 K	245.4 ± 9.5
310.39 K	245.5 ± 9.5
310.68 K	245.5 ± 9.5
310.96 K	245.5 ± 9.5
311.25 K	245.7 ± 9.5
311.53 K	245.7 ± 9.5
311.81 K	245.8 ± 9.5
312.1 K	245.9 ± 9.5
312.38 K	246 ± 9.5
312.67 K	246 ± 9.5
312.95 K	246.1 ± 9.5
313.23 K	246.3 ± 9.5
313.52 K	246.2 ± 9.5
313.8 K	246.5 ± 9.5
314.08 K	246.5 ± 9.5
314.37 K	246.6 ± 9.6
314.65 K	246.5 ± 9.5
314.94 K	246.7 ± 9.6
315.22 K	246.8 ± 9.6
315.5 K	246.9 ± 9.6
315.79 K	246.9 ± 9.6
316.07 K	247 ± 9.6
316.36 K	247.1 ± 9.6
316.64 K	247.3 ± 9.6
316.92 K	247.4 ± 9.6
317.21 K	247.5 ± 9.6
317.49 K	247.5 ± 9.6
317.77 K	247.6 ± 9.6
318.06 K	247.7 ± 9.6
318.34 K	247.7 ± 9.6
318.63 K	247.8 ± 9.6
318.91 K	248 ± 9.6
319.19 K	248.1 ± 9.6
319.48 K	248.2 ± 9.6
319.76 K	248.2 ± 9.6
320.05 K	248.3 ± 9.6
320.33 K	248.4 ± 9.6
320.61 K	248.5 ± 9.6
320.9 K	248.5 ± 9.6
321.18 K	248.6 ± 9.6
321.46 K	248.7 ± 9.6
321.75 K	248.9 ± 9.6
322.03 K	249 ± 9.6
322.32 K	249 ± 9.6
322.6 K	249.1 ± 9.6
322.88 K	249.3 ± 9.7
323.17 K	249.3 ± 9.7
323.45 K	249.5 ± 9.7
323.74 K	249.5 ± 9.7
324.02 K	249.6 ± 9.7
324.3 K	249.7 ± 9.7
324.59 K	249.9 ± 9.7
324.87 K	250.1 ± 9.7
325.16 K	250.2 ± 9.7
325.44 K	250.1 ± 9.7
325.72 K	250.1 ± 9.7
